{"source": "paper PMC10374545", "about": "“A small molecule inhibitor of PTP1B and PTPN2 enhances T cell anti-tumor immunity” (Nature Communications, 2023)", "key": {"[1]": {"assay": "Serum anti-nuclear antibodies (ANA) ELISA", "type": "in vivo, mouse", "description": "CD3ε (BD Biosciences Cat# 553058) and CD28 (BD Biosciences Cat# 557393) antibodies for T cell stimulation and NK1.1 (BD Biosciences Cat# 564143) antibody for NK cell stimulation were purchased from BD Biosciences. Ly49H (clone 3D10, BioLegend Cat# 144702) antibody for NK stimulation was from BioLegend. For analyzing T cell signaling, p-(Y418) SFK (Thermo Fisher Scientific Cat# 14-9034-82) was from Invitrogen and p-(Y694) STAT-5 (D47E7) XP® (Cell Signaling Technology Cat# 4322) was from Cell Signaling. Recombinant human IL-2, recombinant murine IL-7 and recombinant human IL-15 were purchased from the PeproTech, recombinant mouse IL-12 and recombinant human IL-18 were from Australia Biosearch and […] (N4) from Mimotopes. InVivoMAb anti-mouse PD-1 (Bio X Cell Cat# BE0146) and InVivoMAb rat IgG2a isotype control (Bio X Cell Cat# BE0251) were purchased from Bio X Cell. DNase I was from Sigma-Aldrich. Rabbit monoclonal PTP1B (Abcam Cat# ab244207) antibody for flow cytometry was from Abcam and mouse monoclonal PTPN2 6F3 antibody for immunoblotting and flow cytometry was from MédiMabs (Cat# MM-019-P). Mouse anti-actin (Thermo Fisher Scientific Cat# MA5-11866) from Invitrogen and mouse α-tubulin (Sigma-Aldrich Cat# T5168) was from Merck. The mouse anti-nuclear antibodies Ig’s (total IgA+G + M) ELISA Kit was from Alpha Diagnostic Int. and the Transaminase II Kit from Wako Pure Chemicals. FBS was purchased from Thermo Scientific, RPMI 1640, DMEM, MEM, HEPES, non-essential amino acids, penicillin/streptomycin, and sodium-pyruvate were from Invitrogen, collagenase type IV was purchased from Worthington Biochemical and ABBV-CLS-484 was from MedChemExpress (Cat# HY-145923)."}, "AT3 mammary tumors": {"test_system": "AT3 mammary tumors", "assay": "Tumor-infiltrating lymphocytes in AT3 tumors", "type": "in vivo, mouse", "design": "CD4 EM, individual mice / CD8 EM, individual mice / GRZMB, individual mice / B cells, individual mice / NK cells, individual mice / Tregs, individual mice / MDSCs, individual mice: unit not given here", "protocol": "Tumor-bearing mice were sacrificed and tumors were excised and digested at 37 °C for 30 min using a cocktail of 1 mg/ml collagenase type IV (Worthington Biochemicals) and 0.02 mg/ml DNase I (Sigma-Aldrich) in DMEM supplemented with 2% (v/v) FBS. Cells were passed through a 70 μm cell strainer (BD Biosciences) twice and processed for flow cytometry. For assessing T cell activation, cells were surface stained with fluorophore-conjugated antibodies to CD62L, CD44, PD-1, and TIM-3. For the assessment of NK cells, B cells, myeloid-derived suppressor cells (MDSCs), dendritic cells (DCs), and tumor-associated macrophages, cells were surface stained with fluorophore-conjugated antibodies to NK1.1, TCRβ, CD19, CD11b, CD11c, F4/80, Ly6C and Ly6G. For the detection of intracellular cytokines TNF and IFNγ, T cells were stimulated with PMA (20 ng/ml; Sigma-Aldrich) and ionomycin (1 μg/ml; Sigma-Aldrich) in the presence of GolgiPlug™ and GolgiStop™ (BD Biosciences) for 4 h at 37 °C in complete T cell medium. For the intracellular detection of granzyme B, cells were processed untreated without the addition of BD GolgiPlug™ and BD GolgiStop™."}, "[2]": {"test_system": "p-STAT-1 and CD3 in AT3 tumors", "assay": "Immunohistochemistry for p-STAT-1 (Y701) and CD3 in AT3 tumors", "type": "in vivo, mouse", "conditions": "10 mg/kg i.v.", "protocol": "For the immunohistochemistry analysis of mammary tumor samples, samples were dissected and fixed in 10% formalin. After fixation, the tissues were embedded in paraffin and sectioned onto microscopic glass slides at 4 μm thickness per section. After deparaffinization and rehydration, the slides were subjected to antigen retrieval in Tris/EDTA buffer (pH 8.0) at 120 °C for 10 min and then cooled down to room temperature. The slides were blocked with 5% (v/v) normal goat serum (NGS) containing 0.1% (v/v) TritonX-100 in PBS for 1 h at room temperature and then incubated with primary antibody p-STAT-1 (Tyr701) (1:500; Cell Signaling Technology), or CD3ε (1:1000; Dako) at room temperature for 1 h. Slides were then washed with PBS containing 0.05% (w/v) Tween-20 and visualized using a rabbit IgG VECTORSTAIN ABC Elite and DAB (3,3′‐diaminobenzidine) Peroxidase Substrate Kit (Vector Laboratories, UK) and counterstained with haematoxylin. Slides were imaged on an Olympus CX43 microscope (Olympus, Tokyo, Japan)."}, "[3]": {"assay": "Morbidity and overt toxicity in treated tumor-bearing mice", "protocol": "Control animals received an injection at the same time of 200 μl of saline. Stock solutions were stored at −80 °C and thawed before each administration."}, "[4]": {"conditions": "AT-3 tumours, Figure 4E, listed as CMP-182"}, "[5]": {"conditions": "AT-3 tumours, Figure 4F, listed as CMP-182"}}, "note": "“And” between values parts separate entries of the source, which are not always exact repeats. Identical values can stand only once."}
{"compound": "CC(C)(O)CCOc1ccc2cc(O)c(N3CC(=O)NS3(=O)=O)c(F)c2c1", "note": "[Compound 182, 5-(1-Fluoro-3-hydroxy-7-(3-hydroxy-3-methylbutoxy)naphthalen-2-yl)−1,2,5-thiadiazolidin-3-one 1,1-dioxide]", "values": [{"measurement": "serum anti-nuclear antibodies (ANA)", "setting": "[1]; 10 mg/kg i.v.", "value": "unaltered"}, {"measurement": "Serum ANA", "setting": "[1]; Figure 10C, individual mice, listed as CMP-182", "value": "77.3077 and 275 and 43.4615 and 42.6923 and 47.3077 and 142.692 and 64.2308"}, {"measurement": "ANA Serum, median", "setting": "[1]; Figure 10C, median, n=8", "value": "70.77, n=8"}, {"measurement": "TILs in AT3 tumors", "setting": "AT3 mammary tumors; 10 mg/kg i.v.", "value": "increased TILs"}, {"measurement": "CD4 EM, individual mice", "setting": "AT3 mammary tumors; [4]", "value": "3726.1 and 1503.32 and 2365.26 and 3607.46 and 1559.09"}, {"measurement": "CD8 EM, individual mice", "setting": "AT3 mammary tumors; [4]", "value": "36747.8 and 11580.8 and 23763.5 and 22145.6 and 15367.2"}, {"measurement": "GRZMB, individual mice", "setting": "AT3 mammary tumors; [4]", "value": "38 and 29.8 and 32 and 36.3 and 27.7"}, {"measurement": "PD-1 TIM-3, individual mice", "setting": "AT3 mammary tumors; [4]", "value": "17.7 and 30.7 and 29.6 and 26.7 and 38"}, {"measurement": "B cells, individual mice", "setting": "AT3 mammary tumors; [5]", "value": "10773 and 2554.29 and 3750.15 and 13582.9 and 3202.26"}, {"measurement": "MDSCs, individual mice", "setting": "AT3 mammary tumors; [5]", "value": "17269.7 and 11457.4 and 14297.5 and 10691.6 and 5468.87"}, {"measurement": "NK cells, individual mice", "setting": "AT3 mammary tumors; [5]", "value": "10197.4 and 4505.05 and 4177.56 and 6667.39 and 3703.02"}, {"measurement": "Tregs, individual mice", "setting": "AT3 mammary tumors; [5]", "value": "857.48 and 533.579 and 888.636 and 1675.89 and 531.261"}, {"measurement": "tumor p-STAT-1 and CD3+ T cell infiltrates in AT3 tumors of Lck-Cre;Ptpn2fl/fl mice", "setting": "[2]", "value": "enhanced promotion"}, {"measurement": "morbidity or systemic inflammation", "setting": "[3]; AT3-OVA tumor-bearing mice, 10 mg/kg i.v.", "value": "not accompanied by overt signs of morbidity or systemic inflammation"}, {"measurement": "overt toxicities", "setting": "[3]; dosing every two days", "value": "did not result in any overt toxicities"}]}
